Experimental findings from patent US20240271184A1, “LOW PH COMPOSITION AND METHOD FOR S[…] ACIDS IN BIOLOGICAL SAMPLES” (priority 2021, published 2024) are described below.

Series [1] deals with nucleases in saliva samples. The class given is biochemical, human. To be noted: for degradation of RNA in saliva samples obtained from nuclease-rich donors: pH 5.2; for rRNA doublet integrity and RIN in saliva: pH 4.71; for RNA stability and RIN as pH decreased: pH 5; for rRNA doublet and RIN of spiked RNA in saliva: T2.
The test system of series [2] is RNAse activity in saliva samples. Nature of the series: Nuclease assay (RNAseAlert) in saliva mixed 1:1 with formulation. Type of series: biochemical, human. To be noted: ATA 5 mM final; PAAc at pH 4.7; CDTA when ATA was present; saliva 1:1.
Series [3] concerns nucleases in stool samples. The class given is biochemical, human. To be noted: pH 4.7.
The nature of series [4]: Solubility of salts in the present composition. To be noted: 4% SDS/100 mM CDTA/10 mM ATA/10 mg/mL PAAc.

With `O[C@H](CS)[C@H](O)CS` (racemic) [dithiothreitol], the “degradation of RNA in saliva samples obtained from nuclease-rich donors” value (“degradation of RNA” below) in series [1] is reported as “Degradation of RNA”.
For the molecule `O=C(O)c1cc(SSc2ccc([N+](=O)[O-])c(C(=O)O)c2)ccc1[N+](=O)[O-]` [5,5-dithio-bis-(2-nitrobenzoic acid)], the “degradation of RNA” value in series [1] is listed as “Degradation of RNA”.
Regarding `O=C(O)c1cc2cccc([N+](=O)[O-])c2[nH]1` [7-nitroindole-2-carboxylic acid], the “degradation of RNA” value in series [1] is reported as “Degradation of RNA”.
Turning to `O=C(O)CN(CC(=O)O)C1CCCCC1N(CC(=O)O)CC(=O)O` (centres unmarked) [CDTA, 1,2-cyclohexanediaminetetraacetic acid], the “effect on RNAse activity of addition to guanidinium salt-based compositions” value in series [2] is listed as “minimal effect on RNAse activity”. The “RIN and rRNA doublet of spiked RNA in stool” value in series [3] was “RIN values increased and rRNA doublet remained intact”.
On to `CCCCCCCCCCCCCCCC[N+](C)(C)C.[Br-]` [CTAB, Cetyltrimethylammonium bromide], for which the “rRNA doublet integrity and RIN in saliva” value in series [1] is “doublet was degraded and the RIN was significantly reduced”.
Regarding `O=C(O[C@@H]1Cc2c(O)cc(O)cc2O[C@@H]1c1cc(O)c(O)c(O)c1)c1cc(O)c(O)c(O)c1` [EGCG, epigallocatechin gallate], in series [1], the “degradation of RNA” value is “did not prevent degradation of RNA”.
In the case of `N#CS.N=C(N)N` [GTC, guanidinium thiocyanate], in series [1], the “relative effectiveness for stabilizing RNA at low pH” value is “more effective than GuHCl”; the “RNA stability and RIN as pH decreased” value was “surprising improvement in RNA stability and corresponding increase in RIN”.
On to `Cl.N=C(N)N` [GuHCl, guanidinium hydrochloride], for which, in series [1], the “RNA stability and RIN as pH decreased” value is “surprising improvement in RNA stability and corresponding increase in RIN”.
Consider `[Cl-].[K+]` [KCl], for which the “solubility in the present composition” value in series [4] is “solubility issues”.
With `O=S(=O)([O-])[O-].[Li+].[Li+]` [Li2SO4, lithium sulphate], in series [1], the “rRNA doublet and RIN of spiked RNA in saliva” value is “rRNA doublet was intact and the RIN was high”.
Still for that read-out and setting: in the case of `[Cl-].[Li+]` [LiCl, lithium chloride] it was “rRNA doublet was intact and the RIN was high”; in that of `[Cl-].[Na+]` [NaCl, sodium chloride], “rRNA doublet was intact and the RIN was high”.
As to `CCCCCCCCCCCCOS(=O)(=O)[O-].[Na+]` [SDS, sodium dodecyl sulfate], in series [1], the “rRNA doublet integrity and RIN in saliva” value is on record as “able to preserve the integrity of rRNA”.
For `N[C@H]1C(O)O[C@H](COP(=O)(O)O)[C@@H](O)[C@@H]1O` (some centres unmarked) [glucosamine 6-phosphate], in series [1], the “degradation of RNA” value was “Degradation of RNA”.
Still for that read-out and setting: in the case of `O=S(=O)(O)c1cc(O)c2c(O)c(/N=N/c3cccc4ccccc34)c(S(=O)(=O)O)cc2c1` [pontacyl violet 6R] it was “Degradation of RNA”; in that of `Cc1ccc(S(=O)(=O)O)cc1.[Na]` [sodium p-toluenesulfonate], “Degradation of RNA”; in that of `O=C(O)CCP(CCC(=O)O)CCC(=O)O` [tris(2-carboxyethyl)phosphine], “Degradation of RNA”.
Still for that read-out and setting: in the case of `OCCS` [β-2-mercaptoethanol] it was “Degradation of RNA”.
On the same count and under the same terms, in the case of ribonucleoside vanadyl complexes it was “Degradation of RNA”.
As for sodium lauroyl sarcosinate [Sarkosyl], in series [1], the “rRNA doublet integrity and RIN in saliva” value is “doublet was degraded and the RIN was significantly reduced”.

B1: recombinant human placental RNAse inhibitor (protein, UniProt P13489 2-461, looked up)
Ribonuclease inhibitor: SLDIQSLDIQCEELSDARWAELLPLLQQCQVVRLDDCGLTEARCKDISSALRVNPALAELNLRSNELGDVGVHCVLQGLQTPSCKIQKLSLQNCCLTGAGCGVLSSTLRTLPTLQELHLSDNLLGDAGLQLLCEGLLDPQCRLEKLQLEYCSLSAASCEPLASVLRAKPDFKELTVSNNDINEAGVRVLCQGLKDSPCQLEALKLESCGVTSDNCRDLCGIVASKASLRELALGSNKLGDVGMAELCPGLLHPSSRLRTLWIWECGITAKGCGDLCRVLRAKESLKELSLAGNELGDEGARLLCETLLEPGCQLESLWVKSCSFTAACCSHFSSVLAQNRFLLELQISNNRLEDAGVRELCQGLGQPGSVLRVLWLADCDVSDSSCSSLAATLLANHSLRELDLSNNCLGDAGILQLVESVRQPGCLLEQLVLYDIYWSEEMEDRLQALEKDKPSLRVIS
B1: the “degradation of RNA” value in series [1] is “Degradation of RNA”.
